The NIST ThermoML archive (doi:10.1016/j.jct.2013.10.031)

Assay: wn = mass fraction of the nth substance listed
Details: Gas, Burnett expansion method

FCC(F)(F)F [1,1,1,2-tetrafluoroethane] + CCC
Details | mass density [kg/m3]
299.04 K, 290.2 kPa, w2 = 0.55 | 7.2808
299.04 K, 330.1 kPa, w2 = 0.6 | 7.994
299.04 K, 380.6 kPa, w2 = 0.55 | 9.6815
299.04 K, 432.1 kPa, w2 = 0.6 | 10.6297
299.04 K, 496.4 kPa, w2 = 0.55 | 12.8736
299.04 K, 561.9 kPa, w2 = 0.6 | 14.1346
299.04 K, 724.4 kPa, w2 = 0.6 | 18.7949
299.04 K, 824.2 kPa, w2 = 0.55 | 22.7626
299.05 K, 180.8 kPa, w2 = 0.65 | 4.1345
299.05 K, 238.4 kPa, w2 = 0.65 | 5.4977
299.05 K, 313.5 kPa, w2 = 0.65 | 7.3105
299.05 K, 410.5 kPa, w2 = 0.65 | 9.7208
299.05 K, 534.3 kPa, w2 = 0.65 | 12.9262
299.05 K, 642.9 kPa, w2 = 0.55 | 17.1183
299.06 K, 689.6 kPa, w2 = 0.65 | 17.1876
299.06 K, 880.4 kPa, w2 = 0.65 | 22.8543
299.06 K, 922.6 kPa, w2 = 0.6 | 24.9906
299.92 K, 198.1 kPa, w2 = 0.5 | 5.06523
299.92 K, 261.1 kPa, w2 = 0.5 | 6.74709
299.92 K, 343.5 kPa, w2 = 0.5 | 8.9873
299.92 K, 449.9 kPa, w2 = 0.5 | 11.9714
299.92 K, 585.2 kPa, w2 = 0.5 | 15.9465
299.92 K, 754.7 kPa, w2 = 0.5 | 21.2412
299.93 K, 961.3 kPa, w2 = 0.5 | 28.294
300.04 K, 162.1 kPa, w2 = 0.4 | 4.47962
300.04 K, 213.8 kPa, w2 = 0.4 | 5.96699
300.04 K, 369.1 kPa, w2 = 0.4 | 10.5874
300.04 K, 481.6 kPa, w2 = 0.4 | 14.1031
300.04 K, 624.3 kPa, w2 = 0.4 | 18.786
300.04 K, 801.2 kPa, w2 = 0.4 | 25.0237
300.04 K, 1014.7 kPa, w2 = 0.4 | 33.3323
300.05 K, 281.4 kPa, w2 = 0.4 | 7.94819
300.28 K, 1155.2 kPa, w2 = 0.45 | 37.6831
300.3 K, 250.1 kPa, w2 = 0.45 | 6.74559
300.3 K, 328.7 kPa, w2 = 0.45 | 8.98533
300.3 K, 430.2 kPa, w2 = 0.45 | 11.9689
300.3 K, 560 kPa, w2 = 0.45 | 15.9432
300.3 K, 722.6 kPa, w2 = 0.45 | 21.2369
300.3 K, 921.7 kPa, w2 = 0.45 | 28.2885
303 K, 206 kPa, w2 = 0.65 | 4.6675
303 K, 271.6 kPa, w2 = 0.65 | 6.2064
303 K, 356.7 kPa, w2 = 0.65 | 8.2528
303 K, 466.3 kPa, w2 = 0.65 | 10.974
303 K, 605.7 kPa, w2 = 0.65 | 14.5921
303.01 K, 228 kPa, w2 = 0.55 | 5.5856
303.01 K, 513.7 kPa, w2 = 0.55 | 13.1325
303.01 K, 665.4 kPa, w2 = 0.55 | 17.4628
303.01 K, 780 kPa, w2 = 0.65 | 19.4028
303.01 K, 853.2 kPa, w2 = 0.55 | 23.2201
303.02 K, 300.2 kPa, w2 = 0.55 | 7.4272
303.02 K, 393.7 kPa, w2 = 0.55 | 9.876
303.02 K, 1078.8 kPa, w2 = 0.55 | 30.8763
303.03 K, 991 kPa, w2 = 0.65 | 25.7988
303.1 K, 231.6 kPa, w2 = 0.6 | 5.4683
303.1 K, 304.9 kPa, w2 = 0.6 | 7.2713
303.1 K, 399.8 kPa, w2 = 0.6 | 9.6687
303.1 K, 521.7 kPa, w2 = 0.6 | 12.8566
303.1 K, 675.5 kPa, w2 = 0.6 | 17.0956
303.1 K, 865.6 kPa, w2 = 0.6 | 22.7325
303.11 K, 1092.1 kPa, w2 = 0.6 | 30.2268
304.1 K, 860.4 kPa, w2 = 0.4 | 26.6525
304.1 K, 1087.7 kPa, w2 = 0.4 | 35.5024
304.11 K, 174.8 kPa, w2 = 0.4 | 4.77108
304.11 K, 397.4 kPa, w2 = 0.4 | 11.2764
304.11 K, 518.4 kPa, w2 = 0.4 | 15.0206
304.11 K, 671.1 kPa, w2 = 0.4 | 20.0084
304.12 K, 230.5 kPa, w2 = 0.4 | 6.35521
304.12 K, 303.2 kPa, w2 = 0.4 | 8.46542
304.18 K, 860.4 kPa, w2 = 0.5 | 24.4745
304.19 K, 302.4 kPa, w2 = 0.5 | 7.77376
304.19 K, 396.5 kPa, w2 = 0.5 | 10.3551
304.19 K, 517.4 kPa, w2 = 0.5 | 13.7935
304.19 K, 670.5 kPa, w2 = 0.5 | 18.3734
304.19 K, 1088.7 kPa, w2 = 0.5 | 32.6005
304.23 K, 1142.8 kPa, w2 = 0.45 | 36.7316
304.24 K, 907.2 kPa, w2 = 0.45 | 27.5748
304.25 K, 248 kPa, w2 = 0.45 | 6.57513
